ChEMBL document CHEMBL3120155, “4,4'-Diaminodiphenyl ether derivatives: synthesis, spectral, optical, thermal characterization and in-vitro cytotoxicity against Hep 3B and IMR 32 human cell lines” (Eur J Med Chem, 2014)
In brackets after ≈: the same amount, converted by molar mass. Activity calls are given as the source filed them. The rule behind the calls is not given here.

Legend:
[1] = Cytotoxicity against human Hep3B cells after 6 hrs by MTT assay; assay type: functional, cell-based, Hep 3B2
[2] = Cytotoxicity against human IMR32 cells after 6 hrs by MTT assay; assay type: functional, cell-based; settings: IMR-32, 6 h
IMR-32 [3] = assay: Induction of apoptosis in human IMR32 cells assessed as DNA fragmentation at IC50 after 6 hrs by agarose gel electrophoresis; assay type: functional, cell-based
Hep 3B2 [4] = assay: Induction of apoptosis in human Hep3B cells assessed as DNA fragmentation at IC50 after 6 hrs by agarose gel electrophoresis; assay type: functional, cell-based
IMR-32 [5] = assay: Induction of apoptosis in human IMR32 cells assessed as cell shrinkage at IC50 after 6 hrs by microscopic analysis; assay type: functional, cell-based
Hep 3B2 [6] = assay: Induction of apoptosis in human Hep3B cells assessed as cell shrinkage at IC50 after 6 hrs by microscopic analysis; assay type: functional, cell-based

| Structure (SMILES) | IC50 [1] | IC50 [2] | Activity (IMR-32 [3]) | Activity (Hep 3B2 [4]) | Activity (IMR-32 [5]) | Activity (Hep 3B2 [6]) |
| --- | --- | --- | --- | --- | --- | --- |
| C(=N\c1ccc(Oc2ccc(/N=C/c3ccccc3)cc2)cc1)/c1ccccc1 | 29.8 µg/mL (≈ 79.3 µM) | 42.9 µg/mL (≈ 114 µM) |  |  |  |  |
| c1ccc(CNc2ccc(Oc3ccc(NCc4ccccc4)cc3)cc2)cc1 | 28.2 µg/mL (≈ 74.1 µM) | 31.9 µg/mL (≈ 83.9 µM) | Active | Active |  |  |
| c1ccc2c(CNc3ccc(Oc4ccc(NCc5c6ccccc6cc6ccccc56)cc4)cc3)c3ccccc3cc2c1 | 50.1 µg/mL (≈ 86.3 µM) | 65 µg/mL (≈ 112 µM) |  |  |  |  |
| Nc1ccc(Oc2ccc(N)cc2)cc1 | 83.2 µg/mL (≈ 415 µM) | 54.5 µg/mL (≈ 272 µM) |  |  |  |  |
| C(=N\c1ccc(Oc2ccc(/N=C/c3cccc4ccccc34)cc2)cc1)/c1cccc2ccccc12 | 14.1 µg/mL (≈ 29.6 µM) | 33.5 µg/mL (≈ 70.3 µM) | Active | Active | Active | Active |
| C(=N\c1ccc(Oc2ccc(/N=C/c3cc4ccccc4c4ccccc34)cc2)cc1)/c1cc2ccccc2c2ccccc12 | 44.7 µg/mL (≈ 77.5 µM) | 63.1 µg/mL (≈ 109 µM) |  |  |  |  |
| C(=N\c1ccc(Oc2ccc(/N=C/c3c4ccccc4cc4ccccc34)cc2)cc1)/c1c2ccccc2cc2ccccc12 | 59.6 µg/mL (≈ 103 µM) | 50.3 µg/mL (≈ 87.3 µM) |  |  |  |  |
| c1ccc2c(CNc3ccc(Oc4ccc(NCc5cccc6ccccc56)cc4)cc3)cccc2c1 | 89.1 µg/mL (≈ 185 µM) | 89.1 µg/mL (≈ 185 µM) |  |  |  |  |
